In ChEMBL document CHEMBL1201862, “PubChem BioAssay data set” (2004):
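How tested: cells in 96-well plates exposed to compound for 48 hours at five concentrations. Here, GI50 denotes the concentration required for 50% inhibition of growth.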 The source made the active and inactive calls. Rule as the data show it: active = GI50 up to about 1.1 µM and inactive = higher.

Columns and labels:
Experiment in all cases: NCI tumour cell line growth inhibition, 48 h
OVCAR-3 = test system: OVCAR-3
TK-10 = test system: TK-10
SK-MEL-2 = test system: SK-MEL-2
UO-31 = test system: UO-31
COLO 205 = test system: COLO 205
SK-MEL-5 = test system: SK-MEL-5
SW-620 = test system: SW-620
HOP-62 = test system: HOP-62
HCT-116 = test system: HCT-116
SF-539 = test system: SF-539
OVCAR-5 = test system: OVCAR-5
UACC-257 = test system: UACC-257
SF-268 = test system: SF-268
HCC 2998 = test system: HCC 2998
786-0 = test system: 786-0
SR = test system: SR
HOP-92 = test system: HOP-92
U-251 = test system: U-251

Measured: GI50

CC1(C)OB(O)OC1(C)C
inactive: OVCAR-3 > 100 µM | TK-10 > 100 µM | SK-MEL-2 > 100 µM | UO-31 > 100 µM | COLO 205 > 100 µM | SK-MEL-5 > 100 µM | SW-620 > 100 µM | HOP-62 > 100 µM | HCT-116 > 100 µM | SF-539 > 100 µM | OVCAR-5 > 100 µM | UACC-257 > 100 µM | SF-268 > 100 µM | HCC 2998 > 100 µM | 786-0 > 100 µM

O=C(O)/C(Cl)=C(\Cl)C(=O)NC1C2CC3CC(C2)CC1C3 (configuration not stated)
inactive: OVCAR-3 > 100 µM | UO-31 > 100 µM | COLO 205 > 100 µM | SK-MEL-5 > 100 µM | SW-620 > 100 µM | HOP-62 > 100 µM | SR > 100 µM | HCT-116 > 100 µM | HOP-92 > 100 µM | SF-539 > 100 µM | OVCAR-5 > 100 µM | UACC-257 > 100 µM | SF-268 > 100 µM | HCC 2998 > 100 µM | 786-0 > 100 µM | U-251 > 100 µM

C/C(=C\CC/C=C(\C)CC/C=C(\C)CCC1SC1(C)C)CC/C=C(\C)CCC1OC1(C)C (configuration not stated)
inactive: OVCAR-3 > 100 µM | TK-10 > 100 µM | SK-MEL-2 > 100 µM | UO-31 > 100 µM | COLO 205 > 100 µM | SK-MEL-5 > 100 µM | SW-620 > 100 µM | SR > 100 µM | HCT-116 78 µM | HOP-92 > 100 µM | SF-539 > 100 µM | SF-268 > 100 µM | HCC 2998 > 100 µM | 786-0 > 100 µM | U-251 > 100 µM

O=C(N/C(=C\c1cccc([N+](=O)[O-])c1)c1nc2ccccc2[nH]1)c1ccccc1
inactive: OVCAR-3 51.2 µM | SK-MEL-2 66.7 µM | UO-31 16.6 µM | COLO 205 93.1 µM | SK-MEL-5 41.1 µM | SW-620 > 100 µM | HOP-62 42.8 µM | SR 37.3 µM | HCT-116 59.8 µM | HOP-92 40.6 µM | SF-539 45.6 µM | OVCAR-5 63.4 µM | UACC-257 > 100 µM | SF-268 45.3 µM | HCC 2998 94.4 µM | 786-0 55.2 µM | U-251 44 µM

Cc1ccc(C2=C(c3ccc(C)cc3)C(c3ccc(C)cc3)=C(c3ccc(C)cc3)C2=O)cc1
inactive: TK-10 > 100 µM | SK-MEL-2 > 100 µM | UO-31 > 100 µM | SK-MEL-5 > 100 µM | SW-620 > 100 µM | HOP-62 > 100 µM | SR > 100 µM | HCT-116 > 100 µM | SF-539 > 100 µM | OVCAR-5 > 100 µM | UACC-257 > 100 µM | SF-268 > 100 µM | 786-0 > 100 µM | U-251 > 100 µM

CC12CC3C(CC1SCC(=O)O2)C3(C)C (configuration not stated)
inactive: OVCAR-3 > 100 µM | TK-10 > 100 µM | SK-MEL-2 > 100 µM | UO-31 > 100 µM | COLO 205 > 100 µM | SK-MEL-5 > 100 µM | HCT-116 > 100 µM | HOP-92 > 100 µM | SF-539 > 100 µM | OVCAR-5 > 100 µM | UACC-257 > 100 µM | SF-268 > 100 µM | HCC 2998 > 100 µM | 786-0 > 100 µM | U-251 > 100 µM

CC(=O)OC12c3ccccc3C1CCCCCC21OCCCO1 (configuration not stated)
inactive: OVCAR-3 > 100 µM | TK-10 > 100 µM | SK-MEL-2 > 100 µM | UO-31 > 100 µM | COLO 205 > 100 µM | SK-MEL-5 > 100 µM | HOP-62 > 100 µM | SR > 100 µM | HCT-116 > 100 µM | SF-539 > 100 µM | OVCAR-5 > 100 µM | SF-268 > 100 µM | HCC 2998 > 100 µM | 786-0 > 100 µM | U-251 > 100 µM

Cc1cc(C)nc(NS(=O)(=O)c2ccc(NC(=O)c3cccc4c(Nc5ccc(S(=O)(=O)N=C(N)N)cc5)c5ccccc5nc34)cc2)n1
inactive: OVCAR-3 10.5 µM | TK-10 34.8 µM | SK-MEL-2 52.8 µM | UO-31 46.6 µM | COLO 205 37.9 µM | SK-MEL-5 54.8 µM | SW-620 9.48 µM | HOP-62 37.8 µM | HCT-116 32.4 µM | HOP-92 19.9 µM | SF-539 17.3 µM | OVCAR-5 > 100 µM | UACC-257 24.7 µM | SF-268 22.5 µM | HCC 2998 4.85 µM | 786-0 30.3 µM | U-251 33.9 µM

CC(=O)Nc1ccc(-c2nnc(SCC(=O)Nc3ccc([N+](=O)[O-])cc3)o2)cc1
inactive: OVCAR-3 14.5 µM | TK-10 14.6 µM | SK-MEL-2 14.3 µM | UO-31 18.9 µM | COLO 205 14.2 µM | SK-MEL-5 13.1 µM | SW-620 16.2 µM | HOP-62 26.3 µM | SR 3.18 µM | HCT-116 12.5 µM | HOP-92 22.9 µM | SF-539 24.3 µM | OVCAR-5 19.8 µM | UACC-257 12.1 µM | SF-268 14.1 µM | 786-0 11.3 µM | U-251 14.7 µM

CCOc1ccc(C2=NN(CC)C(=O)C(C3C(=O)N(c4ccccc4)N=C3C)C2)cc1 (configuration not stated)
inactive: OVCAR-3 > 100 µM | TK-10 > 100 µM | SK-MEL-2 > 100 µM | UO-31 > 100 µM | COLO 205 > 100 µM | SK-MEL-5 > 100 µM | SW-620 > 100 µM | HOP-62 > 100 µM | HCT-116 > 100 µM | HOP-92 > 100 µM | SF-539 > 100 µM | OVCAR-5 > 100 µM | UACC-257 > 100 µM | SF-268 > 100 µM | HCC 2998 > 100 µM | 786-0 > 100 µM | U-251 > 100 µM

CC(CC(=O)N1C(=O)C(C)(C)[C@@H](O)[C@H]1CC(C)C(Cl)(Cl)Cl)C(Cl)(Cl)Cl (some centres not stated)
inactive: OVCAR-3 > 100 µM | TK-10 > 100 µM | UO-31 > 100 µM | COLO 205 > 100 µM | SK-MEL-5 > 100 µM | SW-620 > 100 µM | HOP-62 > 100 µM | HCT-116 > 100 µM | HOP-92 > 100 µM | SF-539 > 100 µM | UACC-257 > 100 µM | SF-268 > 100 µM | HCC 2998 > 100 µM | 786-0 > 100 µM | U-251 > 100 µM

O=C(CCc1n[nH]c(=S)o1)Nc1cc(Cl)ccc1Cl
inactive: OVCAR-3 > 100 µM | TK-10 > 100 µM | UO-31 > 100 µM | COLO 205 > 100 µM | SK-MEL-5 > 100 µM | SW-620 15.3 µM | HOP-62 > 100 µM | HCT-116 16.1 µM | HOP-92 > 100 µM | SF-539 > 100 µM | OVCAR-5 > 100 µM | UACC-257 > 100 µM | SF-268 56.6 µM | HCC 2998 > 100 µM | 786-0 29.6 µM | U-251 34.4 µM

c1ccc(C2(c3ccccc3)SSC3(S2)C2CC4CC(C2)CC3C4)cc1 (configuration not stated)
inactive: TK-10 > 100 µM | SK-MEL-2 > 100 µM | UO-31 > 100 µM | SK-MEL-5 > 100 µM | SW-620 > 100 µM | SR > 59.2 µM | HCT-116 > 100 µM | HOP-92 > 100 µM | SF-539 > 100 µM | OVCAR-5 > 100 µM | UACC-257 > 100 µM | SF-268 > 100 µM | HCC 2998 > 100 µM | 786-0 > 100 µM | U-251 > 100 µM

CCCCN(CCCC)CC(O)c1cc(-c2ccc(Cl)c(Cl)c2)nc2c(Cl)cc(Cl)cc12 (configuration not stated)
inactive: OVCAR-3 > 100 µM | TK-10 > 100 µM | SK-MEL-2 > 100 µM | UO-31 66.4 µM | COLO 205 > 100 µM | SW-620 15.6 µM | HOP-62 66.5 µM | SR 42.6 µM | HCT-116 > 100 µM | SF-539 > 100 µM | OVCAR-5 > 100 µM | UACC-257 86.1 µM | SF-268 39.7 µM | HCC 2998 16.2 µM | 786-0 > 100 µM | U-251 > 100 µM

N#CC(C(=O)/C(=N\NC(N)=O)C(C#N)c1ccc(Cl)cc1)c1ccc(Cl)cc1 (configuration not stated)
inactive: OVCAR-3 > 100 µM | SK-MEL-2 > 100 µM | UO-31 > 100 µM | COLO 205 > 100 µM | SK-MEL-5 > 100 µM | SW-620 > 100 µM | HOP-62 > 100 µM | HCT-116 > 100 µM | HOP-92 68.4 µM | SF-539 > 100 µM | OVCAR-5 > 100 µM | UACC-257 > 100 µM | SF-268 > 100 µM | 786-0 > 100 µM | U-251 > 100 µM

CCc1cccc(C)c1N1C(=O)C(=O)C(c2nc3ccccc3o2)/C(=N/NC(=S)NN)C1=O (configuration not stated)
inactive: OVCAR-3 > 100 µM | TK-10 > 100 µM | SK-MEL-2 > 100 µM | UO-31 > 100 µM | COLO 205 > 100 µM | SK-MEL-5 > 100 µM | SW-620 > 100 µM | HOP-62 > 100 µM | HCT-116 > 100 µM | HOP-92 > 100 µM | SF-539 > 100 µM | OVCAR-5 > 100 µM | UACC-257 > 100 µM | SF-268 > 100 µM | 786-0 > 100 µM | U-251 > 100 µM

Nc1ncnc2c1ncn2CCOC(c1ccccc1)P(=O)(O)O (configuration not stated)
inactive: OVCAR-3 > 100 µM | TK-10 > 100 µM | SK-MEL-2 > 100 µM | UO-31 > 100 µM | COLO 205 > 100 µM | SK-MEL-5 > 100 µM | SW-620 > 100 µM | SR > 100 µM | HCT-116 > 100 µM | SF-539 > 100 µM | OVCAR-5 > 100 µM | UACC-257 > 100 µM | SF-268 > 100 µM | HCC 2998 > 100 µM | 786-0 > 100 µM | U-251 > 100 µM
